The text below walks through data of ChEMBL document CHEMBL4622917, “Structure Elucidation and Absolute Configuration Determination of Nortriterpenoids from Picramnia glazioviana” (J Nat Prod, 2020).

The term IC50 denotes the concentration at which inhibition is half-maximal. Read a low IC50 as higher potency.

The subject of assay [1] is SK-BR-3. The experiment in a line: Cytotoxicity against human SKBR3 cells assessed as cell viability at 100 uM incubated for 48 hrs by MTT assay relative to control. Type of assay: functional. The conditions noted are these: SK-BR-3, 48 h, read-out: Activity. For orientation: Tetrazolium assays rely on reduction of a dye to a coloured formazan, in cell work by metabolically active cells.

The subject of assay [2] is MDA-MB-231. The experiment in a line: Cytotoxicity against human MDA-MB-231 cells incubated for 48 hrs by MTT assay. The assay is classed as functional, cell-based. As to conditions: MDA-MB-231, 48 h.
Assay [3] deals with A549. Put plainly: Cytotoxicity against human A549 cells assessed as cell viability at 100 uM incubated for 48 hrs by MTT assay relative to control. Type of assay: functional. The conditions noted are these: A549, 48 h, read-out: Activity.
Assay [4] deals with MDA-MB-231. The experiment in a line: Cytotoxicity against human MDA-MB-231 cells assessed as cell viability at 100 uM incubated for 48 hrs by MTT assay relative to control. Type of assay: functional. As to conditions: MDA-MB-231, 48 h, read-out: Activity.
Assay [5] relates to SK-BR-3. The experiment in a line: Cytotoxicity against human SKBR3 cells incubated for 48 hrs by MTT assay. Type of assay: functional, cell-based. The conditions noted are these: SK-BR-3, 48 h.
Assay [6] has as its system A549. Put plainly: Cytotoxicity against human A549 cells incubated for 48 hrs by MTT assay. Type of assay: functional, cell-based. The conditions noted are these: A549, 48 h.
The subject of assay [7] is MDA-MB-231. Put plainly: Cytotoxicity against human MDA-MB-231 cells assessed as reduction in cell viability at 50 to 100 uM incubated for 48 hrs by MTT assay relative to control. The assay is classed as functional, cell-based.
Assay [8] concerns A549. Put plainly: Cytotoxicity against human A549 cells assessed as reduction in cell viability at 25 to 100 uM incubated for 48 hrs by MTT assay relative to control. Type of assay: functional, cell-based.
Assay [9] relates to MDA-MB-231. Put plainly: Cytotoxicity against human MDA-MB-231 cells assessed as reduction in cell viability at 12.5 to 100 uM incubated for 48 hrs by MTT assay relative to control. Type of assay: functional, cell-based.
Assay [10] has as its system MDA-MB-231. The experiment in a line: Cytotoxicity against human MDA-MB-231 cells assessed as reduction in cell viability at 25 to 100 uM incubated for 48 hrs by MTT assay relative to control. Type of assay: functional, cell-based.
Assay [11] deals with MDA-MB-231. The experiment in a line: Cytotoxicity against human MDA-MB-231 cells assessed as reduction in cell viability at 25 to 50 uM incubated for 48 hrs by MTT assay relative to control. Type of assay: functional, cell-based.

Structures are written as SMILES. Active and inactive are the calls of the source. The rule behind the calls is not given here.

For `CC1(C)O[C@H]2CC(=O)OC[C@]23[C@H]2CCC4=C([C@H]5CCC(=O)O5)C(=O)CC[C@@]4(C)[C@]2(C)CC[C@@H]13`, the viability at 100 µM in the assay on SK-BR-3 [1], in the assay with A549 [3] and with MDA-MB-231 [4] was over 50% each time. Moreover, the IC50 in the assay on MDA-MB-231 [2], in the assay with SK-BR-3 [5] and with A549 [6] was over 10 µM throughout.
Regarding `COC(=O)[C@H](C1=C2C=C[C@@H]3[C@@]45COC(=O)C[C@@H]4OC(C)(C)[C@@H]5C[C@@H](OC(=O)c4ccccc4)[C@@]3(C)[C@]2(C)CCC1=O)C(C)(C)CC(=O)O`, the viability at 100 µM in the assay on SK-BR-3 [1], in the assay with A549 [3] and in the assay on MDA-MB-231 [4] was over 50% in each case. For the same compound, the half-inhibitory concentration (IC50) in the assay on MDA-MB-231 [2], in the assay on SK-BR-3 [5] and with A549 [6] was over 10 µM in each case. Also, the outcome in the assay with MDA-MB-231 [7] was Active.
`COC(=O)CC(C)(C)[C@H](C(=O)OC)C1=C2CC[C@@H]3[C@@]45COC(=O)C[C@@H]4OC(C)(C)[C@@H]5C[C@@H](OC(=O)c4ccccc4)[C@@]3(C)[C@]2(C)CCC1=O`: the viability at 100 µM in the assay on SK-BR-3 [1], in the assay on A549 [3] and with MDA-MB-231 [4] was over 50% each time. Besides, the IC50 in the assay on MDA-MB-231 [2], in the assay on SK-BR-3 [5] and in the assay with A549 [6] was over 10 µM throughout.
For the compound `COC(=O)[C@@H]1C2=C(CC[C@]3(C)C2=CC[C@@H]2[C@@]45COC(=O)C[C@@H]4OC(C)(C)[C@@H]5C[C@@H](O)[C@]23C)OC(=O)CC1(C)C`, the viability at 100 µM in the assay on SK-BR-3 [1], with A549 [3] and in the assay with MDA-MB-231 [4] was over 50% in each case. The IC50 in the assay with MDA-MB-231 [2], with SK-BR-3 [5] and with A549 [6] was over 10 µM throughout.
On to `COC(=O)CC(C)(C)[C@H](C(=O)OC)C1=C2CC[C@@H]3[C@@]45COC(=O)C[C@@H]4OC(C)(C)[C@@H]5CC[C@@]3(C)[C@]2(C)CCC1=O`, for which the viability at 100 µM in the assay with SK-BR-3 [1], in the assay with A549 [3] and with MDA-MB-231 [4] was over 50% each time. Moreover, the IC50 in the assay with MDA-MB-231 [2], in the assay on SK-BR-3 [5] and in the assay on A549 [6] was over 10 µM throughout. The result in the assay on MDA-MB-231 [7] and in the assay with A549 [8] was Active.
Regarding `CC1(C)O[C@H]2CC(=O)OC[C@]23[C@H]2CCC4=C([C@@H]5CCC(=O)O5)C(=O)CC[C@@]4(C)[C@]2(C)[C@H](OC(=O)c2ccccc2)C[C@@H]13`, the viability at 100 µM with SK-BR-3 [1], in the assay on A549 [3] and with MDA-MB-231 [4] was over 50% each time. Further, the IC50 in the assay with MDA-MB-231 [2], in the assay on SK-BR-3 [5] and in the assay with A549 [6] was over 10 µM in each case. Also, in the assay with MDA-MB-231 [9], the outcome was Active.
`CC1(C)O[C@H]2CC(=O)OC[C@]23[C@H]2CCC4=C([C@H]5CCC(=O)O5)C(=O)CC[C@@]4(C)[C@]2(C)[C@H](OC(=O)c2ccccc2)C[C@@H]13`: the viability at 100 µM in the assay on SK-BR-3 [1], with A549 [3] and in the assay on MDA-MB-231 [4] was over 50% throughout. In addition, the IC50 with MDA-MB-231 [2], in the assay on SK-BR-3 [5] and with A549 [6] was over 10 µM each time. Also, the result in the assay on MDA-MB-231 [10] was Active.
`COC(=O)[C@H](C1=C2[C@H]3O[C@H]3[C@@H]3[C@@]45COC(=O)C[C@@H]4OC(C)(C)[C@@H]5C[C@@H](OC(=O)c4ccccc4)[C@@]3(C)[C@]2(C)CCC1=O)C(C)(C)CC(=O)O`: the viability at 100 µM with SK-BR-3 [1], in the assay with A549 [3] and with MDA-MB-231 [4] was over 50% each time. In addition, the IC50 with MDA-MB-231 [2], in the assay on SK-BR-3 [5] and in the assay on A549 [6] was over 10 µM throughout. Further, the result in the assay with MDA-MB-231 [11] was Active.
